The values below come from US20250145594A1, “MODULATORS OF THE INTEGRATED STRESS PATHWAY” (Calico Life Sciences LLC, priority 2020, published 2025).

In the test the test system is ATF4 luciferase reporter in HEK293T cells. The experiment in a line: ATF4-Luc assay (in vitro model of VWMD). The format is cell-based, human. The settings on record: Homo sapiens, HEK-293T, 7 h, HEK293T cells carrying the ATF4 luciferase reporter, 1 μg/mL tunicamycin, One Glo luminescence. On the procedure: In order to test exemplary compounds of the invention in a cellular context, a stable VWMD cell line was first constructed. The ATF4 reporter was prepared by fusing the human full-length ATF4 5′-UTR (NCBI Accession No. BC022088.2) in front of the firefly luciferase (FLuc) coding sequence lacking the initiator methionine as described in Sidrauski et al (eLife 2013). The construct was used to produce recombinant retroviruses using standard methods and the resulting viral supernatant was used to transduce HEK293T cells, which were then subsequently selected with puromycin to generate a stable cell line.
HEK293T cells carrying the ATF4 luciferase reporter were plated on polylysine coated 384-well plates (Greiner Bio-one) at 30,000 cells per well. Cells were treated the next day with 1 μg/mL tunicamycin and 200 nM of a compound of Formula (I) for 7 hours. Luminescence was measured using One Glo (Promega) as specified by the manufacturer. Cells were maintained in DMEM with L-glutamine supplemented with 10% heat-inactivated FBS (Gibco) and Antibiotic-Antimycotic solution (Gibco).
Table 4 below summarizes the EC50 data obtained using the ATF4-Luc assay for exemplary compounds of the invention.
On the technique in general: Reporter assays use an easily measured gene product as a stand-in for the process of interest.

One may read the EC50 as the concentration needed to bring the measured effect to its halfway point. As for `O=C(CO[C@H]1C[C@@H](OC(F)(F)F)C1)NC12CC(NC(=O)[C@H]3C[C@@H](O)c4cc(C(F)(F)F)c(F)cc4O3)(C1)C2` [Compound 644, (2R,4R)-7-fluoro-4-hydroxy-N-[3-(2-{[(1s,3S)-3-(trifluoromethoxy)cyclobutyl]oxy}acetamido)bicyclo[1.1.1]pentan-1-yl]-6-(trifluoromethyl)-3,4-dihydro-2H-1-benzopyran-2-carboxamide], the EC50 was below 0.01 µM.
For `O=C(NC12CC(c3ccc(OCCOC(F)(F)F)nc3)(C1)C2)[C@H]1C[C@@H](O)c2cc(Cl)c(F)cc2O1` [Compound 446, (2R,4R)-6-chloro-7-fluoro-4-hydroxy-N-(3-{6-[2-(trifluoromethoxy)ethoxy]pyridin-3-yl}bicyclo[1.1.1]pentan-1-yl)-3,4-dihydro-2H-1-benzopyran-2-carboxamide] the value was 0.01 to 0.05 µM.
The same measure for `O=C(NC12CC(n3cc(-c4ccc(OC(F)(F)F)cn4)cn3)(C1)C2)[C@H]1C[C@@H](O)c2cc(Cl)c(Br)cc2O1` [Compound 380, (2R,4R)-7-bromo-6-chloro-4-hydroxy-N-(3-{4-[5-(trifluoromethoxy)pyridin-2-yl]-1H-pyrazol-1-yl}bicyclo[1.1.1]pentan-1-yl)-3,4-dihydro-2H-1-benzopyran-2-carboxamide]: below 0.01 µM.
As for `O=C(NC12CC(n3cc(-c4ccc(C(F)(F)F)cn4)cn3)(C1)C2)C1CNc2cc(Cl)c(F)cc2O1` (stereo not shown) [Compound 574, 6-chloro-7-fluoro-N-(3-{4-[5-(trifluoromethyl)pyridin-2-yl]-1H-pyrazol-1-yl}bicyclo[1.1.1]pentan-1-yl)-3,4-dihydro-2H-1,4-benzoxazine-2-carboxamide], the EC50 was below 0.01 µM.
For `O=C(NC12CC(n3cc(-c4ccc(OC(F)F)nc4)cn3)(C1)C2)[C@@H]1C[C@@H](O)c2cc(Cl)ccc2O1` [Compound 332, (2S,4R)-6-chloro-N-(3-{4-[6-(difluoromethoxy)pyridin-3-yl]-1H-pyrazol-1-yl}bicyclo[1.1.1]pentan-1-yl)-4-hydroxy-3,4-dihydro-2H-1-benzopyran-2-carboxamide] the value was below 0.01 µM; for `COc1ncc(-c2cnn(C34CC(NC(=O)[C@@H]5C[C@@H](O)c6cc(Cl)ccc6O5)(C3)C4)c2)cn1` [Compound 396, (2S,4R)-6-chloro-4-hydroxy-N-{3-[4-(2-methoxypyrimidin-5-yl)-1H-pyrazol-1-yl]bicyclo[1.1.1]pentan-1-yl}-3,4-dihydro-2H-1-benzopyran-2-carboxamide], 0.05 to 0.25 µM; for `O=C(NC12CC(c3ccnc(OCCOC(F)(F)F)n3)(C1)C2)[C@H]1C[C@@H](O)c2cc(Cl)c(F)cc2O1` [Compound 469, (2R,4R)-6-chloro-7-fluoro-4-hydroxy-N-(3-{2-[2-(trifluoromethoxy)ethoxy]pyrimidin-4-yl)bicyclo[1.1.1]pentan-1-yl}-3,4-dihydro-2H-1-benzopyran-2-carboxamide], below 0.01 µM.
The same measure for `O=C(CO[C@H]1C[C@@H](OC(F)(F)F)C1)NC12CC(NC(=O)[C@@H]3C[C@@H](O)c4cc(Cl)c(Cl)cc4O3)(C1)C2` [Compound 492, (2S,4R)-6,7-dichloro-4-hydroxy-N-[3-(2-{[(1s,3R)-3-(trifluoromethoxy)cyclobutyl]oxy}acetamido)bicyclo[1.1.1]pentan-1-yl]-3,4-dihydro-2H-1-benzopyran-2-carboxamide]: below 0.01 µM; for `CN(CCCOC(F)(F)F)c1cnn(C23CC(NC(=O)[C@H]4C[C@@H](O)c5cc(Cl)ccc5O4)(C2)C3)c1` [Compound 430, (2R,4R)-6-chloro-4-hydroxy-N-[3-(4-{methyl[3-(trifluoromethoxy)propyl]amino}-1H-pyrazol-1-yl)bicyclo[1.1.1]pentan-1-yl]-3,4-dihydro-2H-1-benzopyran-2-carboxamide]: 0.01 to 0.05 µM.
The same measure for `O=C(NC12CC(n3cc(N4CC(OC(F)(F)F)C4)cn3)(C1)C2)[C@H]1C[C@@H](O)c2cc(Cl)ccc2O1` [Compound 352, (2R,4R)-6-chloro-4-hydroxy-N-(3-{4-[3-(trifluoromethoxy)azetidin-1-yl]-1H-pyrazol-1-yl}bicyclo[1.1.1]pentan-1-yl)-3,4-dihydro-2H-1-benzopyran-2-carboxamide]: 0.01 to 0.05 µM.
Regarding `O=C(NC12CC(n3cc(C(=O)N4CC[C@@H](OC(F)(F)F)C4)cn3)(C1)C2)[C@H]1C[C@@H](O)c2cc(Cl)ccc2O1` [Compound 370, (2R,4R)-6-chloro-4-hydroxy-N-(3-{4-[(3R)-3-(trifluoromethoxy)pyrrolidine-1-carbonyl]-1H-pyrazol-1-yl}bicyclo[1.1.1]pentan-1-yl)-3,4-dihydro-2H-1-benzopyran-2-carboxamide], the EC50 was 0.01 to 0.05 µM.
For the molecule `O=C(NC12CC(c3cc(OCCCOC(F)(F)F)ncn3)(C1)C2)[C@H]1C[C@@H](O)c2cc(Cl)c(F)cc2O1` [Compound 649, (2R,4R)-6-chloro-7-fluoro-4-hydroxy-N-(3-{6-[3-(trifluoromethoxy)propoxy]pyrimidin-4-yl}bicyclo[1.1.1]pentan-1-yl)-3,4-dihydro-2H-1-benzopyran-2-carboxamide], the EC50 was below 0.01 µM.
The same measure for `O=C(CO[C@H]1C[C@@H](OC(F)(F)F)C1)NC12CC(NC(=O)[C@H]3C[C@H](O)c4cc(Cl)c(Cl)cc4O3)(C1)C2` [Compound 495, (2R,4S)-6,7-dichloro-4-hydroxy-N-[3-(2-{[(1s,3S)-3-(trifluoromethoxy)cyclobutyl]oxy}acetamido)bicyclo[1.1.1]pentan-1-yl]-3,4-dihydro-2H-1-benzopyran-2-carboxamide]: below 0.01 µM; for `O=C(N[C@H]1CC[C@H](n2cc(OCCOC(F)(F)F)cn2)CC1)[C@H]1C[C@@H](O)c2cc(F)ccc2O1` [Compound 523, (2R,4R)-6-fluoro-4-hydroxy-N-[(1r,4R)-4-{4-[2-(trifluoromethoxy)ethoxy]-1H-pyrazol-1-yl}cyclohexyl]-3,4-dihydro-2H-1-benzopyran-2-carboxamide]: below 0.01 µM.
Take `O=C(NC12CC(c3ccc(-n4cnc(C(F)(F)F)c4)nc3)(C1)C2)[C@H]1C[C@@H](O)c2cc(Cl)ccc2O1` [Compound 559, (2R,4R)-6-chloro-4-hydroxy-N-(3-{6-[4-(trifluoromethyl)-1H-imidazol-1-yl]pyridin-3-yl}bicyclo[1.1.1]pentan-1-yl)-3,4-dihydro-2H-1-benzopyran-2-carboxamide]: the EC50 lay within 0.01 to 0.05 µM.
The same measure for `O=C(NC12CC(n3cc(-c4ccc(OC(F)F)nc4)cn3)(C1)C2)[C@H]1C[C@@H](O)c2cc(Cl)ccc2O1` [Compound 327, (2R,4R)-6-chloro-N-(3-{4-[6-(difluoromethoxy)pyridin-3-yl]-1H-pyrazol-1-yl}bicyclo[1.1.1]pentan-1-yl)-4-hydroxy-3,4-dihydro-2H-1-benzopyran-2-carboxamide]: below 0.01 µM; for `O=C(NC12CCC(n3cc(-c4ccc(C(F)(F)F)cn4)cn3)(C1)C2)[C@H]1C[C@@H](O)c2cc(Cl)c(F)cc2O1` [Compound 627, (2R,4R)-6-chloro-7-fluoro-4-hydroxy-N-(4-{4-[5-(trifluoromethyl)pyridin-2-yl]-1H-pyrazol-1-yl}bicyclo[2.1.1]hexan-1-yl)-3,4-dihydro-2H-1-benzopyran-2-carboxamide]: below 0.01 µM; for `O=C(COc1ccc(Cl)c(F)c1)NC12CC(c3ccnc(OCCCOC(F)(F)F)c3)(C1)C2` [Compound 453, 2-(4-chloro-3-fluorophenoxy)-N-(3-{2-[3-(trifluoromethoxy)propoxy]pyridin-4-yl}bicyclo[1.1.1]pentan-1-yl)acetamide]: below 0.01 µM.
Consider `O=C(CO[C@H]1C[C@@H](OC(F)(F)F)C1)NC12CC(NC(=O)[C@H]3C[C@H](O)c4cc(Cl)c(F)cc4O3)(C1)C2` [Compound 496, (2R,4S)-6-chloro-7-fluoro-4-hydroxy-N-[3-(2-{[(1s,3S)-3-(trifluoromethoxy)cyclobutyl]oxy}acetamido)bicyclo[1.1.1]pentan-1-yl]-3,4-dihydro-2H-1-benzopyran-2-carboxamide], for which the EC50 is below 0.01 µM.
For `O=C(NC12CC(n3cc([C@H]4CC[C@@H](OC(F)(F)F)C4)nn3)(C1)C2)[C@H]1C[C@@H](O)c2cc(Cl)ccc2O1` (relative stereo) [Compound 540, (2R,4R)-6-chloro-4-hydroxy-N-(3-{4-[(1S*,3R*)-3-(trifluoromethoxy)cyclopentyl]-1H-1,2,3-triazol-1-yl}bicyclo[1.1.1]pentan-1-yl)-3,4-dihydro-2H-1-benzopyran-2-carboxamide] the value was 0.01 to 0.05 µM; for `O=C(COc1ccc(C(F)(F)F)c(F)c1)N[C@H]1CC[C@H](n2cc(C(=O)N3CC[C@H](OC(F)(F)F)C3)cn2)CC1` [Compound 614, 2-[3-fluoro-4-(trifluoromethyl)phenoxy]-N-[(1S,4r)-4-{4-[(3S)-3-(trifluoromethoxy)pyrrolidine-1-carbonyl]-1H-pyrazol-1-yl}cyclohexyl]acetamide], below 0.01 µM.
For `O=C(NC12CC(n3cc(CN4CC[C@H](OC(F)(F)F)C4)cn3)(C1)C2)[C@H]1C[C@@H](O)c2cc(Cl)ccc2O1` [Compound 339, (2R,4R)-6-chloro-4-hydroxy-N-[3-(4-{[(3S)-3-(trifluoromethoxy)pyrrolidin-1-yl]methyl}-1H-pyrazol-1-yl)bicyclo[1.1.1]pentan-1-yl]-3,4-dihydro-2H-1-benzopyran-2-carboxamide] the value was 0.25 to 0.5 µM.
